Measurements published in the METLIN SMRT retention time set (Domingo-Almenara et al. 2019).

Assay: gradient 5% acetonitrile 3 min, to 50% in 2 min, to 85% in 15 min, held 3 min, 100 µL/min
Conditions: column: Zorbax Extend-C18 2.1 x 50 mm; eluents: water / acetonitrile, 0.1% formic acid
In short: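 Standards, all pure, were combined into mixtures of ~100 molecules and run at 100 μL/min on a Zorbax Extend-C18 column (2.1 × 50 mm, 1.8 μm) with water and acetonitrile, each containing 0.1% formic acid. A coupled quadrupole time-of-flight mass spectrometer operated in positive and negative ionization mode. Retention time values come from computationally picked adduct peaks, each inspected manually.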

Row | Structure (SMILES) | RP-LC retention time
1 | CC1CCCN(CCCNC(=O)C(=O)Nc2ccc3nc4n(c(=O)c3c2)CCCCC4)C1 (stereo not given) | 599 s
2 | COc1ccc(CC(=O)N2CCCC2c2cc(C(C)C)no2)cc1 (stereo not given) | 868 s
3 | O=C(Nc1ccccc1)c1ccc2c(cnn2CC(=O)N2CCCCCC2)c1 | 800 s
4 | COc1ccc(CNC(=O)C2CCCN(c3cnc4nccnc4c3)C2)cc1OC (stereo not given) | 710 s
5 | CCOC(=O)c1ccc(OC(=O)CCCCCN=C(N)N)cc1 | 750 s
6 | O=C(NC1(c2nc(-c3ccncc3)no2)CCCCC1)c1ccccc1 | 863 s
7 | Cc1nc(Nc2ccccn2)sc1C(=O)N1CCSCC1 | 703 s
8 | O=C(CC1CCCN(c2cn[nH]c(=O)c2)C1)Nc1ccc2c(c1)OCCO2 (stereo not given) | 639 s
9 | COc1ccc(NC(=O)N2CCC(n3c(CC(C)C)nc4cccnc43)CC2)c(OC)c1 | 676 s
10 | CC(=O)N1C[C@@H]2CCCN3CCC[C@@H]([C@H]23)[C@H]1CCCC(=O)NCC1CC1 | 562 s
11 | O=C(Cn1nc2c(c1NC(=O)c1cnccn1)CSC2)NCc1ccco1 | 664 s
12 | COc1nc2ccccc2nc1N1CCCC(C(=O)NC2CCCCC2C)C1 (stereo not given) | 1090 s
13 | COc1ccc(NC(=O)C2CCCN2S(=O)(=O)c2ccc3c(c2)CCCC(=O)N3)cc1OC (stereo not given) | 688 s
14 | CC(C)(Oc1ccc(Cl)cc1)C(=O)NCCN1CCN(C(=O)c2cccs2)CC1 | 592 s
15 | CC1CCN(S(=O)(=O)c2ccc3c(ccc(=O)n3CC(=O)NC3CCCc4ccccc43)c2)CC1 (stereo not given) | 919 s
16 | COc1cccc(-c2nnc(Cc3nc(-c4ccc5c(c4)OCO5)no3)o2)c1 | 977 s
17 | COC(=O)c1ccccc1NC(=O)CSc1cc(N2CCN(c3ccccc3F)CC2)ncn1 | 1170 s
18 | Cc1ccc(-c2cc3c(N4CCCC(C(=O)NC5CC5)C4)nccn3n2)c(C)c1 (stereo not given) | 782 s
19 | CC(=O)N1CCC2(CC1)C(=O)N(C)c1ccccc12 | 665 s
20 | COC(=O)c1c(C)c(C(=O)C(C)N(C(=O)c2ccc(Cl)cc2)C2CC2)c(C)n1C (stereo not given) | 1030 s
21 | CC(C)Cc1nc(CNC(=O)C2CCCCC2)no1 | 836 s
22 | Cc1cc(N2CCN(C)CC2)nc(N2CCN(S(=O)(=O)c3cc(C)c(C)cc3C)CC2)n1 | 598 s
23 | Cc1cc(C)cc(NC(=O)COc2cc(C)nc(N3CCN(c4ccccc4)CC3)n2)c1 | 915 s

Row | Structure (SMILES) | RP-LC retention time
24 | CCN1C(=O)C2(CCN(S(=O)(=O)c3cccs3)CC2)c2ccccc21 | 983 s
25 | CO[C@H]1C(=O)N(C2CCN(S(=O)(=O)c3cccnc3)CC2)[C@H]1c1ccncc1 | 579 s
26 | CC(CNC(=O)Cn1c(=O)n(C(C)C)c2ccc(S(=O)(=O)N3CCCC3)cc21)c1ccccc1 (stereo not given) | 905 s
27 | CCOC(=O)C1CCN(C(=O)C2CCN(c3cncnc3N3CCCC3)CC2)CC1 | 629 s
28 | O=C(Cn1c(CN2CCCCCC2)nc2ccccc21)N1CCOCC1 | 596 s
29 | Cc1cc(C)n(-c2ccc(C(=O)NC3CCCC3)cn2)n1 | 885 s
30 | CS(=O)(=O)N1CCC(C(=O)NCC2CCN(C(=O)Nc3ccc(F)cc3)CC2)CC1 | 622 s
31 | Cc1[nH]c(-c2ccccc2)cc1C(=O)NC1CCCCC1 | 898 s
32 | Cc1ccc(N2C=C(C(=O)N3CCCC3)S(=O)(=O)c3ccccc32)cc1 | 802 s
33 | O=C(CCn1nnc2cc(-c3noc(COc4ccccc4)n3)ccc21)N1CCCCCC1 | 1000 s
34 | COc1ccc(OC)c(Nc2c(-c3ccccc3)nc3cnccn23)c1 | 839 s
35 | CCCNc1cc(N2CCC(CCC(=O)NCC)CC2)ncn1 | 595 s
36 | Cc1ccc(-c2cn3c(C(=O)Nc4nc(C)cs4)csc3n2)cc1 | 848 s
37 | CCCNc1cc(N2CCC(CCC(=O)NCc3ccccc3OC)CC2)ncn1 | 684 s
38 | CCOC(=O)c1[nH]c(C)c(CCC(=O)N2CCC(C(=O)NCCC3=CCCCC3)CC2)c1C | 864 s
39 | CCn1nc(C)cc1C(=O)Nc1nc(-c2cccs2)cs1 | 903 s
40 | Cc1cc(NC(=O)c2cc(-c3cccs3)[nH]n2)sn1 | 672 s
41 | CCCNC(=O)Cc1c(C)nc2nc(-c3ccc(C(C)(C)C)cc3)nn2c1C | 920 s
42 | CCS(=O)(=O)N1CCc2nc(-c3ccc(F)cc3)ncc2C1 | 847 s
43 | Cc1cccc(Nc2nc(-c3ccc(F)c(C)c3)cs2)n1 | 992 s
44 | Cn1nccc1-c1cccc(-c2noc(-c3ccccn3)n2)c1 | 818 s
45 | Cc1csc(-c2cc(S(=O)(=O)N3CCOCC3)cn2CC(=O)N2CCCCC2)n1 | 846 s

Further lines, results first:

Row | RP-LC retention time | Structure (SMILES)
46 | 667 s | CC(=O)NCc1csc(C2CCCN(C(=O)c3cc(F)ccc3F)C2)n1 (stereo not given)
47 | 772 s | O=C(NCCc1ccc(Cl)cc1)C(=O)Nc1ccon1
48 | 734 s | COC(=O)c1ccccc1NC(=O)CSc1cc(C)nc(-c2cccnc2)n1
49 | 841 s | COCCCNC(=O)CCc1cn(-c2ccccc2)nc1-c1ccc2c(c1)OCO2
50 | 733 s | CCOc1ccc(CC(=O)NC2CCN(c3cc(-c4cccs4)[nH]n3)C2)cc1 (stereo not given)
51 | 886 s | CCc1noc(NC(C)=O)c1-c1ccc(C)c(S(=O)(=O)NCc2ccc(C)cc2)c1
52 | 1130 s | Cc1oc2ccn(Cc3ccc(F)cc3)c(=O)c2c1C(=O)NCc1cc(F)cc(F)c1
53 | 988 s | O=C(Cc1ccc(F)cc1)Nc1nc(-c2ccccc2)cs1
54 | 972 s | CCS(=O)(=O)Nc1ccc(C2(C(=O)NCc3cc(F)cc(F)c3)CCCCC2)cc1
55 | 917 s | Cc1cc(C)n(Cc2nc(-c3ccc(NC(=O)Cc4ccc(F)cc4)cc3)oc2C)n1
56 | 676 s | Cc1cc(C)c(S(=O)(=O)Nc2ccc(CC(=O)N3CCC(O)CC3)cc2)c(C)c1
57 | 979 s | CCN1C(=O)COc2cc(-c3noc(C(=O)NCCC(C)C)n3)ccc21
58 | 888 s | COc1cccc(OC)c1C(=O)Nc1nnc(SCc2nnc(-c3ccccc3C)o2)s1
59 | 862 s | N#Cc1cccc(NC(=O)CSc2nc(N3CCc4ccccc4C3)nc3ccccc23)c1
60 | 639 s | Cc1ccccc1CC(=O)NCC(=O)Nc1nc2ccccc2[nH]1
61 | 837 s | COCCN1C(=O)c2cc3ccsc3n2CC1(C)C(=O)NCc1ccc(Cl)cc1 (stereo not given)
62 | 932 s | CCNc1nc(-c2nnc(-c3cccc(C)c3)o2)nc2ccccc12
63 | 685 s | CC(=O)c1ccc(NC(=O)C2CC(=O)N(c3ccc4oc(C)nc4c3)C2)cc1 (stereo not given)
64 | 959 s | Cn1cnc2c(C(=O)NCCC3=CCCCC3)nn(-c3ccc(Cl)cc3)c2c1=O
65 | 640 s | COc1ccccc1CNC(=O)c1ccc2ncnc(N3CCCC3)c2c1
66 | 678 s | O=C(Nc1ccc(-c2ccn[nH]2)cc1)c1cccnc1
67 | 1180 s | Cc1nc(-c2ccc(-c3noc(COc4ccccc4)n3)cc2)cs1
68 | 625 s | COc1cc(NC(=O)Cn2ccnc2-c2ccnc(N3CCOCC3)c2)cc(OC)c1

Row | RP-LC retention time | Structure (SMILES)
69 | 957 s | COC(=O)c1ccccc1NC(=O)CSc1nnc2c3cc(-c4ccc(F)cc4)nn3ccn12
70 | 685 s | Cc1oc(-c2ccc(C(=O)NCCCN3CCOCC3)cc2)nc1CSc1ccccc1
71 | 785 s | Cc1ccc(-c2nc3ncccn3c2NCc2ccccc2)cc1C
72 | 951 s | O=C1c2ccccc2C(=O)N1CCCCN(C(=O)c1cccs1)c1ccc(F)cc1F
73 | 810 s | COc1ccc(OC)c(NC(=O)Cn2cccc(-c3nc(-c4ccc(OC)c(OC)c4)no3)c2=O)c1
74 | 973 s | Cn1cc(-c2nc(C(=O)Nc3ccc(F)cc3)cs2)c2cccnc21
75 | 561 s | Cc1ccnc(N2CCCC(C(=O)NCc3ccc(N(C)C)cc3)C2)n1 (stereo not given)
76 | 847 s | Cc1ccc(C(=O)Nc2ccc(N3CCN(Cc4ccccc4)C3=O)nc2)s1
77 | 814 s | CC1(C)CC(=O)c2cn(-c3ccc(F)cc3)c(=O)c(C(=O)NC3CC3)c2C1
78 | 1100 s | O=S(=O)(c1cc(F)ccc1F)N1CCc2nc(-c3ccc(F)cc3)ncc2C1
79 | 571 s | CS(=O)(=O)N(Cc1cccnc1)C1CN(Cc2ccc(F)c(F)c2)C1
80 | 1000 s | Cc1cc2nc(C(=O)Nc3ccccc3F)cc(C)n2n1
81 | 1040 s | CCc1sc(NC(=O)CS(=O)(=O)c2ccc(C)cc2)nc1-c1ccccc1
82 | 1290 s | CCCCCn1c(=O)c2ccccc2n(Cc2nc(-c3ccc(SC)cc3)no2)c1=O
83 | 681 s | CCN(CC)C(=O)c1ccc2nc(-c3ccc(Cl)cc3)cn2c1
84 | 581 s | COC[C@@H]1CN(Cc2ccc3[nH]ccc3c2)C[C@H]1c1ccncc1
85 | 676 s | COc1ccc(CNC(=O)Cc2cn(C)c3ncccc23)c(OC)c1
86 | 723 s | O=C(NCc1ccccc1F)c1cn2cc(Cl)ccc2n1
87 | 664 s | COc1ccc(C(=O)Nc2c(-c3ccccc3)nc3ccccn23)c(OC)c1
88 | 919 s | Cn1c(C(=O)Nc2ccccc2F)cc2c(=O)oc3ccccc3c21
89 | 972 s | COc1ccccc1NC(=O)N(C)CCc1noc(COc2ccc(Cl)cc2)n1
90 | 852 s | Cc1ccc(NC(=O)CSc2nc(N3CCCCC3)nc3ccccc23)cc1Cl
